This is an account of results in article PMC3488005, “A yeast expression system for functional and pharmacological studies of the malaria parasite Ca^2+/H^+ antiporter” (Malaria Journal, 2012).

The target in one assay is T1, PfCHA (Plasmodium falciparum, UniProt C6KSN3).
T1 construct: gene PF3D7_0603500; full-length ORF (about 1321 bp, approx. 49 kDa) in pGREG505 (GAL1 promoter), expressed in S. cerevisiae vcx1 knock-out (Y03825), vacuole membrane; apoaequorin co-expressed as reporter
T1 sequence (C6KSN3 1-441): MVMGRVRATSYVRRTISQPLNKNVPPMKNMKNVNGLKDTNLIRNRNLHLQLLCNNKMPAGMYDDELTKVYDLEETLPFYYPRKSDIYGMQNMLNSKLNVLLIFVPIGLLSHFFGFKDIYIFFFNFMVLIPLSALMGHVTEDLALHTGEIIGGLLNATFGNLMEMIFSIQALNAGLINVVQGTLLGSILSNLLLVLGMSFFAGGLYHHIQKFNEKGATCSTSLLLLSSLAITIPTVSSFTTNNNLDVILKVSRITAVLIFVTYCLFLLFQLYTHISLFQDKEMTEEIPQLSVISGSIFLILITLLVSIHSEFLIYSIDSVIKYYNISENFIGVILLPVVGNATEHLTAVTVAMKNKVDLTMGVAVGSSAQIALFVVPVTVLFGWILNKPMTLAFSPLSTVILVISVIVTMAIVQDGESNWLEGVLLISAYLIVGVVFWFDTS
The assay can be described thus: whole-cell apoaequorin luminescence of cytosolic Ca2+ (AUC […]-16 s), 96-well. The format is cell-based.

The target in a further assay is T2, Vcx1p (VCX1) (Saccharomyces cerevisiae, UniProt Q99385).
T2 construct: full-length gene (1236 bp) in pGREG505 (GAL1 promoter), re-expressed in S. cerevisiae vcx1 knock-out (Y03825); apoaequorin co-expressed as reporter
T2 sequence (Q99385 1-411): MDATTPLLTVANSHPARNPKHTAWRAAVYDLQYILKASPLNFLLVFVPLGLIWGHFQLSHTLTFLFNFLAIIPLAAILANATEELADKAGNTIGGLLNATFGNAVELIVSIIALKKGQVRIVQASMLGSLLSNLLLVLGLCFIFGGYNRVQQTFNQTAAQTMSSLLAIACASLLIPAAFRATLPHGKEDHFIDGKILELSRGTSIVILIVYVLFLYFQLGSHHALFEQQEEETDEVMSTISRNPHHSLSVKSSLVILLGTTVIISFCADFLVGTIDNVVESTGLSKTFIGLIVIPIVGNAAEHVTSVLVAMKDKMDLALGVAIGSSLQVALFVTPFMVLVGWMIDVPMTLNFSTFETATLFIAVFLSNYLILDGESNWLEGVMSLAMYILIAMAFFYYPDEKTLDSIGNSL
The assay is described as above. The format is cell-based. Conditions: read-out: concentrations at which their transport was inhibited by 50%.

With `N=C(N)SCCc1ccc(OCc2ccc([N+](=O)[O-])cc2)cc1` [KB-R7943], the IC50 turned out to be 17.5 µM against PfCHA and 12.5 µM on Vcx1p (VCX1).
